The record followed here is patent publication US11312724B2 (ASCENTAGE PHARMA (SUZHOU) CO., LTD., priority 2021, dated 2022).

Each structure is given as a SMILES string.

One test relates to MIA PaCa-2 cell. Kind of test: Cell proliferation assay (Celltiter-Glo), MIA PaCa-2. As to conditions: Homo sapiens, MIA PaCa-2, 72 h, 3 days. In kind it is cell-based. On the procedure:
(§1) Cell Proliferation Assay:
(§2) NCI-H358 cell and MIA PaCa-2 cell was cultured in RPMI-1640 supplemented with 10% FBS in humidified incubator at 37° C., 5% CO2. To asses the effect of Compounds of the Disclosure on cell proliferation, exponentially growing cells (5000 cells/well) were plated onto 96-well plates. After cell seeding, a representative Compounds of the Disclosure were added to the cell media (in concentrations ranging from 0 to 10 μM, 3/dilution series). After 3 days, 30 μL Celltiter-Glo reagent was added, and the luminescent signal was determined according to supplier's instruction. The dose response curves and IC50 values were generated using Prism.
In general terms: In ATP-based viability assays light output follows the ATP content of the culture.

A further test deals with NCI-H358 cell. Put plainly: Cell proliferation assay (Celltiter-Glo), NCI-H358. In kind it is cell-based. To be noted: Homo sapiens, NCI-H358, 72 h, 3 days. Here is the method:
as §1, §2

`CN(C)C/C=C/C(=O)N1CCN(c2nc(OC[C@@H]3CCCN3C)nc3c2CCC2(CCCc4ccccc42)C3)C[C@@H]1CC#N` (stereo partly drawn) [Cpd. No. 15, 2-((2S)-1-((E)-4-(dimethylamino)but-2-enoyl)-4-(2′-(((S)-1-methylpyrrolidin-2-yl)methoxy)-3,4,5′,8′-tetrahydro-2H,6′H-spiro[naphthalene-1,7′-quinazolin]-4′-yl)piperazin-2-yl)acetonitrile]: the IC50 came out at 290 nM in the test with MIA PaCa-2 cell and 510 nM with NCI-H358 cell.
As for `C=CC(=O)N1CCN(c2nc(OC[C@@H]3CCCN3C)nc3c2CCC2(CCCc4ccccc42)C3)[C@@H](C)C1` (stereo partly drawn) [Cpd. No. 8, 1-((3S)-3-methyl-4-(2′-(((S)-1-methylpyrrolidin-2-yl)methoxy)-3,4,5′,8′-tetrahydro-2H,6′H-spiro[naphthalene-1,7′-quinazolin]-4′-yl)piperazin-1-yl)prop-2-en-1-one], the IC50 in the test on MIA PaCa-2 cell is 500 nM; with NCI-H358 cell, 940 nM.
For the compound `C/C=C/C(=O)N1CCN(c2nc(OC[C@@H]3CCCN3C)nc3c2CCC2(CCCc4ccccc42)C3)C[C@@H]1CC#N` (stereo partly drawn) [Cpd. No. 14, 2-((2S)-1-((E)-but-2-enoyl)-4-(2′-(((S)-1-methylpyrrolidin-2-yl)methoxy)-3,4,5′,8′-tetrahydro-2H,6′H-spiro[naphthalene-1,7′-quinazolin]-4′-yl)piperazin-2-yl)acetonitrile], the IC50 in the test with MIA PaCa-2 cell and with NCI-H358 cell was 1670 nM throughout.
Consider `C=CC(=O)N1CCN(c2nc(OC[C@@H]3CCCN3C)nc3c2CCC2(C3)c3cccc(F)c3C3CC32)C[C@@H]1CC#N` (stereo partly drawn) [Cpd. No. 39, 2-((2S)-1-acryloyl-4-(2-fluoro-2′-(((S)-1-methylpyrrolidin-2-yl)methoxy)-1a,5′,6a,8′-tetrahydro-1H,6′H-spiro[cyclopropa[a]indene-6,7′-quinazolin]-4′-yl)piperazin-2-yl)acetonitrile], for which the IC50 in the test on MIA PaCa-2 cell is 370 nM; in the test with NCI-H358 cell, 670 nM.
Turning to `C=CC(=O)N1CCN(c2nc(OC[C@@H]3CN(C)CCO3)nc3c2CCC2(CCCc4ccccc42)C3)C[C@@H]1CC#N` (stereo partly drawn) [Cpd. No. 20, 2-((2S)-1-acryloyl-4-(2′-(((S)-4-methylmorpholin-2-yl)methoxy)-3,4,5′,8′-tetrahydro-2H,6′H-spiro[naphthalene-1,7′-quinazolin]-4′-yl)piperazin-2-yl)acetonitrile], the IC50 was found to be 46 nM in the test with MIA PaCa-2 cell and 72 nM in the test on NCI-H358 cell.
Taken in the same sequence, the figures for `C=CC(=O)N1CCN(c2nc(OC[C@@H]3[C@@H]4C[C@@H]4CN3C)nc3c2CC[C@@]2(CCc4c(Cl)cccc42)C3)C[C@@H]1CC#N` (single isomer, unassigned) [Cpd. No. 47] were 4.9 nM and 15 nM.
The corresponding values for `C=C(F)C(=O)N1CCN(c2nc(OCC34CCCN3CC(F)(F)C4)nc3c2CC[C@@]2(CCc4c(Cl)cccc42)C3)C[C@@H]1CC#N` (stereo partly drawn) [Cpd. No. 51, 2-((2S)-4-((1R)-4-chloro-2′-((2,2-difluorotetrahydro-1H-pyrrolizin-7a(5H)-yl)methoxy)-2,3,5′,8′-tetrahydro-6′H-spiro[indene-1,7′-quinazolin]-4′-yl)-1-(2-fluoroacryloyl)piperazin-2-yl)acetonitrile] are 110 nM and 52 nM.
The corresponding values for `C=CC(=O)N1CCN(c2nc(OCC34CCCN3CCC4)nc3c2CC[C@@]2(CCc4c(Cl)cccc42)C3)C[C@@H]1CC#N` [Cpd. No. 44, 2-((S)-1-acryloyl-4-((R)-4-chloro-2′-((tetrahydro-1H-pyrrolizin-7a(5H)-yl)methoxy)-2,3,5′,8′-tetrahydro-6′H-spiro[indene-1,7′-quinazolin]-4′-yl)piperazin-2-yl)acetonitrile] are 1.5 nM and 4.6 nM.
Take `C=C(F)C(=O)N1CCN(c2nc(OC[C@@H]3CCCN3C)nc3c2CCC2(COCc4cccc(F)c42)C3)C[C@@H]1CC#N` (some centres unmarked): the figures for the IC50 with MIA PaCa-2 cell and in the test with NCI-H358 cell were 810 nM and 660 nM, respectively.
As to `C=C(F)C(=O)N1CCN(c2nc(OC[C@@]34CCCN3C[C@H](F)C4)nc3c2CC[C@@]2(CCc4c(Cl)cccc42)C3)C[C@@H]1CC#N` [Cpd. No. 50, 2-((S)-4-((R)-4-chloro-2′-(((2R,7aS)-2-fluorotetrahydro-1H-pyrrolizin-7a(5H)-yl)methoxy)-2,3,5′,8′-tetrahydro-6′H-spiro[indene-1,7′-quinazolin]-4′-yl)-1-(2-fluoroacryloyl)piperazin-2-yl)acetonitrile], the IC50 in the test with MIA PaCa-2 cell was determined as 2.9 nM; in the test on NCI-H358 cell, 1.2 nM.
Taken in the same sequence, the figures for `C=CC(=O)N1CCN(c2nc(OC[C@@H]3CCCN3C)nc3c2CCC2(CCc4ccccc42)C3)CC1` (stereo partly drawn) [Cpd. No. 9, 1-(4-(2′-(((S)-1-methylpyrrolidin-2-yl)methoxy)-2,3,5′,8′-tetrahydro-6′H-spiro[indene-1,7′-quinazolin]-4′-yl)piperazin-1-yl)prop-2-en-1-one] were 1730 nM and 3270 nM.
The corresponding values for `C=CC(=O)N1CCN(c2nc(OC[C@@H]3CCCN3C)nc3c2CCC2(CCOc4c(Cl)cccc42)C3)C[C@@H]1CC#N` (stereo partly drawn) [Cpd. No. 22, 2-((2S)-1-acryloyl-4-(8-chloro-2′-(((S)-1-methylpyrrolidin-2-yl)methoxy)-5′,8′-dihydro-6′H-spiro[chromane-4,7′-quinazolin]-4′-yl)piperazin-2-yl)acetonitrile] are 490 nM and 940 nM.
The corresponding values for `CN1CCC[C@H]1COc1nc2c(c(N3CCN(C(=O)/C=C/CN4CC(F)C4)[C@@H](CC#N)C3)n1)CCC1(CCc3ccccc31)C2` (stereo partly drawn) [Cpd. No. 41, 2-((2S)-1-((E)-4-(3-fluoroazetidin-1-yl)but-2-enoyl)-4-(2′-(((S)-1-methylpyrrolidin-2-yl)methoxy)-2,3,5′,8′-tetrahydro-6′H-spiro[indene-1,7′-quinazolin]-4′-yl)piperazin-2-yl)acetonitrile] are 91 nM and 320 nM.
Turning to `C=CC(=O)N1CCN(c2nc(OC[C@@H]3CCCN3C)nc3c2CCC2(C3)CC3(CC3)c3c(F)cccc32)C[C@@H]1CC#N` (stereo partly drawn) [Cpd. No. 38, 2-((2S)-1-acryloyl-4-(4′-fluoro-2″-(((S)-1-methylpyrrolidin-2-yl)methoxy)-5″,8″-dihydro-2′H,6″H-dispiro[cyclopropane-1,3′-indene-1′,7″-quinazolin]-4″-yl)piperazin-2-yl)acetonitrile], the IC50 in the test with MIA PaCa-2 cell came to 93 nM; with NCI-H358 cell, 290 nM.
As to `C=C(F)C(=O)N1CCN(c2nc(OCC34CCCN3CCC4)nc3c2CCC2(CCc4c(C(F)F)cccc42)C3)C[C@@H]1CC#N` (stereo partly drawn) [Cpd. No. 49, 2-((2S)-4-(4-(difluoromethyl)-2′-((tetrahydro-1H-pyrrolizin-7a(5H)-yl)methoxy)-2,3,5′,8′-tetrahydro-6′H-spiro[indene-1,7′-quinazolin]-4′-yl)-1-(2-fluoroacryloyl)piperazin-2-yl)acetonitrile], the IC50 in the test with MIA PaCa-2 cell turned out to be 60 nM; with NCI-H358 cell, 61 nM.
As to `C=CS(=O)(=O)N1CCN(c2nc(OC[C@@H]3CCCN3C)nc3c2CCC2(CCCc4ccccc42)C3)C[C@@H]1CC#N` (stereo partly drawn) [Cpd. No. 16, 2-((2S)-4-(2′-(((S)-1-methylpyrrolidin-2-yl)methoxy)-3,4,5′,8′-tetrahydro-2H,6′H-spiro[naphthalene-1,7′-quinazolin]-4′-yl)-1-(vinylsulfonyl)piperazin-2-yl)acetonitrile], the IC50 is 2960 nM with MIA PaCa-2 cell and 1900 nM with NCI-H358 cell.

Usually IC50 stands for the concentration that gives 50% inhibition.
